The text below walks through data of patent US20200254065A1, “LONG-ACTING GLP-2 ANALOGS” (OPKO Biologics Ltd., priority 2019, published 2020).

Entries after “also recorded” stand apart in the source; their conditions may differ. Square brackets hold non-standard residues; d marks the D form. Peptide text beside a SMILES is read from it. Nle = CCCC[C@H](N)C(=O)O

For orientation: half-life means the time in which the quantity being followed falls by half. A low value points to rapid decline. What is called AUC(0-inf) is total exposure, with the tail of the curve extrapolated. In general, AUC(0-t) refers to the area under the concentration-time curve up to a stated or last time point. The CL/F is the apparent clearance, not corrected for the fraction that reaches the circulation. The Cmax is the peak of the concentration-time curve. Usually Tmax stands for the time at which the peak concentration occurs. In general, Vd/F refers to the volume of distribution divided by bioavailability.

Data set [1] can be described thus: Pharmacokinetics of modified GLP-2 variants in rats. In kind it is in vivo. As to conditions: rat, serum, peptide dose 15 mg/kg.
Data set [2] can be described thus: PK after single SC injection in rats (LC-MS/MS). As to conditions: rat, in vivo, 2 mg/kg. How it is done:
To support the pharmacodynamic effects of V4 and Cys-FMS-V4 as detailed in Example 9, a pharmacokinetic analysis was also conducted. In this study (Study reference 15204), all animals were injected SC on Day 1 with 2 mg/kg peptide content of V4, Cys-FMS-V4 and Apraglutide. Blood samples were collected at 2, 8, 12, 24, 36, 48, 72, 96, 120 hours, and Days 7, 8, 9, 10, 11, 12, 13 and 14 post-dose administration and subsequently taken to LC-MS/MS analysis to determine plasma levels of each compound. For Cys-FMS-V4, a 2-analyte method was applied to determine the plasma concentrations of both the full conjugate and the V4 that was hydrolyzed from it (V4 hydrolyzed). Plasma concentrations (μM), as measured by using the LC-MS/MS method, of V4 peptide, Cys-FMS-V4, hydrolyzed V4, and Apraglutide are presented in FIG. 17.

Data set [3] in a line: Solubility and stability in different buffer systems, concentrations, incubation and freeze-thaw. In kind it is physicochemical. As to conditions: Histidine and NaPi, pH 6.8 to 7.5; 1-10 mg/mL; up to 3 days at 37° C.; up to three freeze-thaw cycles.
In data set [4] the test system is intestine epithelium (crypts plus villi). Description: Crypts plus villi length, histopathology of small intestine. Type of data set: in vivo, SD rats. How it is done: In addition to PEG30-FMS-V4 and PEG30-Fmoc-V4 that have been pharmacology evaluated by small intestinal weight evaluation (As shown in Example 5), four other reversible PEGylated variant 4 (“V4”) conjugates and two reversible linker-V4 conjugates were synthesized. All the above were injected to 6 normal SD rats/group once at 2 mg/kg (peptide dose), while on the 6th day, animals were scarified, and the small intestine was weighted followed by histopathology evaluation. […] Therefore, slices from three areas of the intestine (duodenum, jejunum and ilium) were stained with hematoxylin and eosin and at least 7 Crypts+Villi length/slice were measured. The averaged Villi+Crypt length of each treatment group (n=6) was compared to the vehicle group (negative control) and calculated as percentage increase over vehicle. […]
An additional study to evaluate the efficacy and the longevity of V4 and Cys-FMS-V4 was conducted (Study reference 15204) in which the animals were sacrificed on Days 6 (N=6), 10 (N=4) and 14 (N=4). This experiment measured the pharmacological response compared to the commercially approved SBS treatment drug Gattex. In addition, two new conjugates were tested by conjugating V4 to reduced OSu-linker and Cys-FMS-V4 purified from resin. The animals were injected with a single SC injection at Day 1 with 2 mg/kg peptide content of V4, Cys-FMS-V4, FMS-OSu-V4, Apraglutide and Glepaglutide while Gattex was SC injected daily at 2.5 mg/kg peptide content. […]

In a further data set the target is T1, GLP-2 receptor (Homo sapiens, UniProt O95838).
T1 sequence (O95838 1-553): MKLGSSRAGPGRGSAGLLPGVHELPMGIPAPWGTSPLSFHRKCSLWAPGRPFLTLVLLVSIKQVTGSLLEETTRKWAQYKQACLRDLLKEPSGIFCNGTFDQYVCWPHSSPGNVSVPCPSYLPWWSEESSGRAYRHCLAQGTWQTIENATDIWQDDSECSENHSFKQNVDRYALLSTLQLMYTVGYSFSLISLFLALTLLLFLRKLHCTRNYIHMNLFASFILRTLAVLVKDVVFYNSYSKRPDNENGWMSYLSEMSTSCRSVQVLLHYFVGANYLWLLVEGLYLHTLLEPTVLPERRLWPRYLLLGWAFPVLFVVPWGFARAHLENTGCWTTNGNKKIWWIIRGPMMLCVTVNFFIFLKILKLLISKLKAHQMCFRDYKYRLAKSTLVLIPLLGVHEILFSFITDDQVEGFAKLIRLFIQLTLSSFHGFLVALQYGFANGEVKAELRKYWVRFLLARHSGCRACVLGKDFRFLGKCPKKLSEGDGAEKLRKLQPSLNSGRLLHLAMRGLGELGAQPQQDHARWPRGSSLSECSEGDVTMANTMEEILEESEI
The experiment in a line: GLP-2 receptor Cell Based Assay (CBA).

Method for GLP-2 receptor: Evaluation of in vitro binding affinity of the different peptides was assessed by using Cell Based Assay (CBA) in the presence of escalating doses of the different peptides.

In the case of `CCCC[C@H](NC(=O)[C@H](CCC(=O)O)NC(=O)[C@H](CC(=O)O)NC(=O)[C@H](CO)NC(=O)[C@H](Cc1ccccc1)NC(=O)[C@H](CO)NC(=O)CNC(=O)[C@H](CCC(=O)O)NC(=O)CNC(=O)[C@@H](N)Cc1c[nH]cn1)C(=O)N[C@@H](CC(N)=O)C(=O)N[C@H](C(=O)N[C@H](C(=O)N[C@@H](CC(C)C)C(=O)N[C@@H](CC(=O)O)C(=O)N[C@@H](CC(C)C)C(=O)N[C@@H](CC(C)C)C(=O)N[C@@H](C)C(=O)N[C@@H](C)C(=O)N[C@@H](CCCNC(=N)N)C(=O)N[C@@H](CC(=O)O)C(=O)N[C@@H](Cc1ccccc1)C(=O)N[C@H](C(=O)N[C@@H](CC(N)=O)C(=O)N[C@@H](Cc1c[nH]c2ccccc12)C(=O)N[C@@H](CC(C)C)C(=O)N[C@H](C(=O)N[C@@H](CCC(N)=O)C(=O)N[C@H](C(=O)N[C@@H](CCCCN)C(=O)N[C@H](C(=O)N[C@H](C(=O)N[C@@H](CC(=O)O)C(N)=O)[C@@H](C)O)[C@@H](C)CC)[C@@H](C)O)[C@@H](C)CC)[C@@H](C)CC)[C@@H](C)CC)[C@@H](C)O` [Variant 4] (H-HGEGSFSDE[Nle]NTILDLLAARDFINWLIQTKITD-NH2), in data set [1], the half-life was 17.5 h. In data set [2], this compound had an AUC(0-inf) of 14.6 µM·h, an AUC(0-t) of 13.7 µM·h, a CL/F of 0.617 mL/min/kg and a Cmax of 490 nM. In data set [2], the “Time post injection up to which detectable in blood” value was at most 240 h, the Tmax stood at 12 h, the Vd/F was 4.07 L/kg and the half-life was 77 h. In addition, in data set [3], the “CMC perspective, combining purity and solubility” value is “outperformed the rest of the peptides”. For the same compound, the “Percent increase of Crypts+Villi length over vehicle (FIG. 3)” value in data set [4] (Study 15201, 0.5 and 2 mg/kg peptide dose once, 6 days after injection) is “dose dependent pharmacology effect on the intestine epithelium”. For the same compound, the “Crypts plus villi length percent increase over vehicle (FIG. 13)” value in data set [4] (Study 15203, single SC 2 mg/kg on Day 1, Days 6 and 10, listed as V4, 2 mg/kg) is “the most pronounced effect on crypts plus villi length over vehicle compared to Apraglutide and Glepaglutide; also recorded: prolonged activity 10 days following a single SC injection”. Also, in data set [4] (Study 15204, single SC 2 mg/kg on Day 1, Days 6, 10 and 14), the “Crypts plus villi length percent increase over vehicle (FIG. 14)” value was “the most prominent and prolonged effect on villi and crypts length up to 14 days from injection”. Also, the “Villi plus crypts length percent increase over vehicle (FIG. 16)” value in data set [4] (Study 15205, single SC 0.5, 2.0 or 8.0 mg/kg, Days 3, 7 and 14) is “comparable intestinotrophic response on villi and crypt length at all three dose levels”. For the same compound, the “EC50 Ratio to Teduglutide” value at GLP-2 receptor (Table 7) was 3.8. Besides, the “EC50 Ratio to Teduglutide” value on GLP-2 receptor (Table 8, average of 3 independent CBA) is recorded as 1.8.
